Reference: patent US8772283B2, “Imidazo-oxazine compound or salt thereof” (Taiho Pharmaceutical Co., Ltd., priority 2011, dated 2014)

Tests used:
human AKT1 = human AKT1 (Homo sapiens (Human), UniProt P31749); assay: AKT1 kinase activity inhibition (TR-FRET, biotinylated Crosstide substrate); type: biochemical; conditions: preincubation 120 min at 25° C.; ATP 150 μM; Crosstide 500 nM
Protocol: (§1) Preparation of AKT1 and AKT2 and measurement of in vitro inhibitory activity of the above-mentioned compounds against AKT1 and AKT2 kinase activity were carried out with reference to the method disclosed in Biochem. J. Vol. 385, pp 399-408 (2005). In the preparation of AKT1 and AKT2, human AKT1 and AKT2 to which a middle T antigen tag was added were expressed in Sf 9 insect cells, and then AKT1 and AKT2 were prepared following affinity purification and activation by PDK1. The prepared AKT1 and AKT2 were stored at −80° C. until the time of measurement of inhibitory activity of the compounds. In the measurement of inhibitory activity of the compounds, AKT1 or AKT2 and each compound of the present invention were preincubated at 25° C. for 120 minutes in a buffer solution for reaction (15 mM Tris-HCl pH 7.5, 0.01% Tween-20, 2 mM DTT). As a substrate, biotinylated Crosstide (bioton-KGSGSGRPRTSSFAEG), MgCl2, and ATP were added to final concentrations of 500 nM, 10 mM, and 150 μM, respectively, and reactions were carried out at 25° C. for 60 minutes. The reactions were stopped by adding EDTA to a final concentration of 80 mM. Then, a detection liquid in which an Eu-labeled anti-phosphorylation Crosstide antibody (PerkinElmer) and SureLight APC-SA (PerkinElmer) were contained at a final concentration of 0.5 nM and […], respectively, was added, and reactions were carried out at room temperature for 2 hours. Finally, the amount of fluorescence at the time of irradiation of excitation light having a wavelength of 337 nm was measured at dual wavelengths of 620 nm and 665 nm by PHERAstar FS (BMG LABTECH). The amount of phosphorylation was determined from the ratio of the fluorescence amounts at the dual wavelengths. The compound concentration at which phosphorylation can be inhibited by 50% was defined as […] (nM), and the results are shown in Table 4 below.

[1] = test system: AKT Ser473 phosphorylation; assay: Phosphorylated AKT (Ser473) inhibitory activity in cultured cell A2780 (Meso Scale Discovery assay); type: cell-based; conditions: A2780 cells, 3 hours treatment; average±standard deviation of three independent runs
Protocol: (§2) To evaluate the inhibitory activity of the above compounds against AKT activity, AKT Ser 473 phosphorylation and phosphorylation of S6 ribosomal protein (S6RP) (a downstream factor of Akt signal) at Ser240/Ser244, which serve as indices for the activation status of AKT, were measured in extracts of cultured cells which had been treated with the above compounds. For the measurement, assays (manufactured by Meso Scale Discovery) utilizing electrochemiluminescence based on the ELISA principle were used for both AKT Ser473 and S6RP Ser240/Ser244.
(§3) In 10% FBS-containing RPMI1640 medium (Invitrogen), ovarian cancer-derived A2780 cells in the logarithmic growth phase were seeded at 4.5×10^4 cells/150 μL/well into polylysine coated 96-well flat-bottom plates, and cultured for one day in an incubator at 5% CO2, 37° C., and 100% humidity.
(§4) Each compound of the present invention was supplied as a stock solution prepared at a concentration of 10 mM in DMSO. Using this solution, a dilution series was prepared in DMSO solvent at 200-fold of the final concentrations (10, 3, 1, 0.3, 0.1, 0.03, 0.01, 0.003 μM). The day after the cells were seeded, the compound dilution series at a 200-fold concentration was diluted 50-fold in medium for cell culture. To each well of the aforementioned A2780 cell culture plates, 50 μL of the diluted compound dilution series was added. The plates were then placed back in the incubator, and the culture was continued for 3 hours at 5% CO2, 37° C., and 100% humidity.
(§5) Meso Scale Discovery's 96-Well Multi-Spot Phospho-AKT (Ser473) Assay (K151CAA-3) and Phospho (Ser240/244)/Total S6RP Assay (K11139D-2) were used. In advance, a necessary amount of the supplied cell extract buffer was dispensed, and protease inhibitor cocktail and protein phosphatase inhibitor cocktail were added thereto, and kept cold on ice. The culture plates of the cells cultured with the compounds for 3 hours were taken out and the medium was removed. 100 μL of the cell extract buffer kept cold was added per well, followed by extraction by shaking at 300 r.p.m. for 1 hour using a plate shaker while maintaining a temperature of 4° C. Using the obtained extracts at 40 μL/well for the Phospho-AKT (Ser473) Assay and at 15 μL/well for the Phospho(Ser240/244)/Total S6RP Assay, reactions were conducted at 4° C. overnight with shaking at 300 r.p.m. according to the document attached to the kits. The next day, after the wells were washed three times with the supplied wash buffer, 50 μL/well of SULFO-TAG™ sandwich antibody solution was added, and reactions were carried out at room temperature for 1 hour. The wells were washed with the wash buffer three times, and 150 μL of the supplied Read Buffer T was added to each well. The amounts of phosphorylation of AKT and S6RP were measured by a SECTOR Imager 6000 plate reader (manufactured by Meso Scale Discovery) within 30 minutes of the Read Buffer T addition.
(§6) The extraction buffer-only background was subtracted from all of the measurement values, and AKT and S6RP phosphorylation signals in the control cell extract treated with only DMSO were defined as 100%. The compound concentrations and the levels of phosphorylated AKT and S6PR (expressed as a percentage relative to the control) in each concentration were plotted, and IC50 concentration (nM) that achieves 50% inhibition of the control was determined.

human AKT2 = human AKT2 (Homo sapiens (Human), UniProt P31751); assay: AKT2 kinase activity inhibition (TR-FRET, biotinylated Crosstide substrate); type: biochemical; conditions: preincubation 120 min at 25° C.; ATP 150 μM; Crosstide 500 nM
Protocol: as §1

[2] = test system: S6 ribosomal protein (S6RP) Ser240/Ser244 phosphorylation; assay: Phosphorylated S6RP (Ser240/Ser244) inhibitory activity in cultured cell A2780 (Meso Scale Discovery assay); type: cell-based; conditions: A2780 cells, 3 hours treatment; average±standard deviation of three independent runs
Protocol: as §2, §3, §4, §5, §6

Sequence of human AKT2 (P31751 whole entry): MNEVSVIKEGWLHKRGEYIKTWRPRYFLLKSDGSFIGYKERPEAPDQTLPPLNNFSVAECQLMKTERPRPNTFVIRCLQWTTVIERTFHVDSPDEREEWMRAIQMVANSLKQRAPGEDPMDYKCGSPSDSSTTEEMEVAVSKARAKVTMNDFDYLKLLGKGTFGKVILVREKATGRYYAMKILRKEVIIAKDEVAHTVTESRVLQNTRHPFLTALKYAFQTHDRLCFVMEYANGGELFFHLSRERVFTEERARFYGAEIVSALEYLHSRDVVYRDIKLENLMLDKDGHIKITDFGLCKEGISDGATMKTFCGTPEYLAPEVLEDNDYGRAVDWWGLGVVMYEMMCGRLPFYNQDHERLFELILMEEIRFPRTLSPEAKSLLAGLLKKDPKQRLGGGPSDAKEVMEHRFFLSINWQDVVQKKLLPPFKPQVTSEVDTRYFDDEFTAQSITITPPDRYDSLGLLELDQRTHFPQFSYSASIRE
Sequence of human AKT1 (P31749 whole entry): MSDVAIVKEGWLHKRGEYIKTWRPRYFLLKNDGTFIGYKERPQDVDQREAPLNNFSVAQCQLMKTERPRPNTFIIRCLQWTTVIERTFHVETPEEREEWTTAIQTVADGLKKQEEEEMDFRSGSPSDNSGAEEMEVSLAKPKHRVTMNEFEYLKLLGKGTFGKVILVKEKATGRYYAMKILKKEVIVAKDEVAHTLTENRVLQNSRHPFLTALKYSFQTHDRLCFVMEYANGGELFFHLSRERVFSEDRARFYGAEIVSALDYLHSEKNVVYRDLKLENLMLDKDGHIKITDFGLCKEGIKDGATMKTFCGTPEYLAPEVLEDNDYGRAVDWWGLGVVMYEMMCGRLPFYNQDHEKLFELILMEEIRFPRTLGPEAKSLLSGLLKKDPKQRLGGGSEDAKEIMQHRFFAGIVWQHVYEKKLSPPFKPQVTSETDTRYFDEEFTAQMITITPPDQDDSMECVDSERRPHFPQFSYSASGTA

N[C@]1(c2ccc(-c3nc4n(c3-c3ccccc3)COc3cccc(F)c3-4)cc2)C[C@](O)(C2CC2)C1 [Example 1, trans-3-amino-1-cyclopropyl-3-(4-(10-fluoro-3-phenyl-5H-benzo[e]imidazo[1,2-c][1,3]oxazin-2-yl)phenyl)cyclobutanol]
IC50 (human AKT1): 3.7 nM | IC50 [1]: 24 ± 1 nM | IC50 (human AKT2): 0.29 nM | IC50 [2]: 40 ± 13 nM

N[C@]1(c2ccc(-c3nc4n(c3-c3ccncc3)COc3cccc(F)c3-4)cc2)C[C@](O)(C2CC2)C1 [Example 5, trans-3-amino-1-cyclopropyl-3-(4-(10-fluoro-3-(pyridin-4-yl)-5H-benzo[e]imidazo[1,2-c][1,3]oxazin-2-yl)phenyl)cyclobutanol]
IC50 (human AKT1): 22 nM | IC50 [1]: 85 ± 24 nM | IC50 (human AKT2): 0.91 nM | IC50 [2]: 232 ± 53 nM

N[C@]1(c2ccc(-c3nc4n(c3-c3ccccc3)COc3ccccc3-4)cc2)C[C@](O)(C2CC2)C1 [Example 11, trans-3-amino-1-cyclopropyl-3-(4-(3-phenyl-5H-benzo[e]imidazo[1,2-c][1,3]oxazin-2-yl)phenyl)cyclobutanol]
IC50 (human AKT1): 3.9 nM | IC50 [1]: 63 ± 15 nM | IC50 (human AKT2): 1 nM | IC50 [2]: 83 ± 27 nM

COc1cccc2c1-c1nc(-c3ccc([C@]4(N)C[C@@](O)(C5CC5)C4)cc3)c(-c3ccccc3)n1CO2 [Example 16, trans-3-amino-1-cyclopropyl-3-(4-(10-methoxy-3-phenyl-5H-benzo[e]imidazo[1,2-c][1,3]oxazin-2-yl)phenyl)cyclobutanol]
IC50 (human AKT1): 4.8 nM | IC50 [1]: 31 ± 5 nM | IC50 (human AKT2): 0.35 nM | IC50 [2]: 38 ± 7 nM

COc1ccc2c(c1)-c1nc(-c3ccc([C@]4(N)C[C@@](O)(C5CC5)C4)cc3)c(-c3ccccc3)n1CO2 [Example 17, trans-3-amino-1-cyclopropyl-3-(4-(9-methoxy-3-phenyl-5H-benzo[e]imidazo[1,2-c][1,3]oxazin-2-yl)phenyl)cyclobutanol]
IC50 (human AKT1): 1.8 nM | IC50 [1]: 33 ± 6 nM | IC50 (human AKT2): 5.1 nM | IC50 [2]: 37 ± 7 nM

COc1ccc2c(c1)OCn1c-2nc(-c2ccc([C@]3(N)C[C@@](O)(C4CC4)C3)cc2)c1-c1ccccc1 [Example 18, trans-3-amino-1-cyclopropyl-3-(4-(8-methoxy-3-phenyl-5H-benzo[e]imidazo[1,2-c][1,3]oxazin-2-yl)phenyl)cyclobutanol]
IC50 (human AKT1): 3.7 nM | IC50 [1]: 52 ± 6 nM | IC50 (human AKT2): 0.6 nM | IC50 [2]: 58 ± 10 nM

N[C@]1(c2ccc(-c3nc4n(c3-c3ccccc3)COc3cccnc3-4)cc2)C[C@](O)(C2CC2)C1 [Example 27, trans-3-amino-1-cyclopropyl-3-(4-(3-phenyl-5H-imidazo[1,2-c]pyrido[2,3-e][1,3]oxazin-2-yl)phenyl)cyclobutanol]
IC50 (human AKT1): 11 nM | IC50 [1]: 66 ± 10 nM | IC50 (human AKT2): 1.6 nM | IC50 [2]: 100 ± 17 nM

C[C@]1(O)C[C@@](N)(c2ccc(-c3nc4n(c3-c3ccccc3)COc3cccnc3-4)cc2)C1 [Example 28, trans-3-amino-1-methyl-3-(4-(3-phenyl-5H-imidazo[1,2-c]pyrido[2,3-e][1,3]oxazin-2-yl)phenyl)cyclobutanol]
IC50 (human AKT1): 11 nM | IC50 [1]: 81 ± 9 nM | IC50 (human AKT2): 2 nM | IC50 [2]: 131 ± 28 nM

CC[C@]1(O)C[C@@](N)(c2ccc(-c3nc4n(c3-c3ccccc3)COc3cccnc3-4)cc2)C1 [Example 30, trans-3-amino-1-ethyl-3-(4-(3-phenyl-5H-imidazo[1,2-c]pyrido[2,3-e][1,3]oxazin-2-yl)phenyl)cyclobutanol]
IC50 (human AKT1): 33 nM | IC50 [1]: 104 ± 27 nM | IC50 (human AKT2): 4.6 nM | IC50 [2]: 174 ± 47 nM

N[C@]1(c2ccc(-c3nc4n(c3-c3ccccc3)COc3ccncc3-4)cc2)C[C@](O)(C2CC2)C1 [Example 31, trans-3-amino-1-cyclopropyl-3-(4-(3-phenyl-5H-imidazo[1,2-c]pyrido[3,4-e][1,3]oxazin-2-yl)phenyl)cyclobutanol]
IC50 (human AKT1): 4.2 nM | IC50 [1]: 30 ± 5 nM | IC50 (human AKT2): 0.78 nM | IC50 [2]: 51 ± 7 nM

CC1(O)CC(N)(c2ccc(-c3nc4n(c3-c3ccccc3)COc3ccncc3-4)cc2)C1 (stereo not drawn) [Example 32, trans-3-amino-1-methyl-3-(4-(3-phenyl-5H-imidazo[1,2-c]pyrido[3,4-e][1,3]oxazin-2-yl)phenyl)cyclobutanol]
IC50 (human AKT1): 6.6 nM | IC50 [1]: 40 ± 3 nM | IC50 (human AKT2): 1.1 nM | IC50 [2]: 62 ± 23 nM

N[C@]1(c2ccc(-c3nc4n(c3-c3ccccc3)COc3cnccc3-4)cc2)C[C@](O)(C2CC2)C1 [Example 35, trans-3-amino-1-cyclopropyl-3-(4-(3-phenyl-5H-imidazo[1,2-c]pyrido[4,3-e][1,3]oxazin-2-yl)phenyl)cyclobutanol]
IC50 (human AKT1): 1.6 nM | IC50 [1]: 24 ± 3 nM | IC50 (human AKT2): 0.48 nM | IC50 [2]: 33 ± 8 nM

C[C@]1(O)C[C@@](N)(c2ccc(-c3nc4n(c3-c3ccccc3)COc3cnccc3-4)cc2)C1 [Example 36, trans-3-amino-1-methyl-3-(4-(3-phenyl-5H-imidazo[1,2-c]pyrido[4,3-e][1,3]oxazin-2-yl)phenyl)cyclobutanol]
IC50 (human AKT1): 2 nM | IC50 [1]: 32 ± 6 nM | IC50 (human AKT2): 0.74 nM | IC50 [2]: 36 ± 3 nM

N[C@]1(c2ccc(-c3nc4n(c3-c3ccccc3)COc3ncccc3-4)cc2)C[C@](O)(C2CC2)C1 [Example 38, trans-3-amino-1-cyclopropyl-3-(4-(3-phenyl-5H-imidazo[1,2-c]pyrido[3,2-e][1,3]oxazin-2-yl)phenyl)cyclobutanol]
IC50 (human AKT1): 1.4 nM | IC50 [1]: 23 ± 4 nM | IC50 (human AKT2): 0.91 nM | IC50 [2]: 34 ± 6 nM

NC1(c2ccc(-c3nc4n(c3-c3ccccc3)COc3nccnc3-4)cc2)CC(O)(C2CC2)C1 (stereo not drawn) [Example 41, trans-3-amino-1-cyclopropyl-3-(4-(3-phenyl-5H-imidazo[1,2-c]pyrazino[2,3-e][1,3]oxazin-2-yl)phenyl)cyclobutanol]
IC50 (human AKT1): 5.4 nM | IC50 [1]: 70 ± 16 nM | IC50 (human AKT2): 3.3 nM | IC50 [2]: 100 ± 34 nM

C[C@]1(O)C[C@@](N)(c2ccc(-c3nc4n(c3-c3ccccc3)COc3ccc(CO)cc3-4)cc2)C1 [Example 44, trans-3-amino-3-(4-(9-(hydroxymethyl)-3-phenyl-5H-benzo[e]imidazo[1,2-c][1,3]oxazin-2-yl)phenyl)-1-methylcyclobutanol]
IC50 (human AKT1): 2.2 nM | IC50 [1]: 33 ± 7 nM | IC50 (human AKT2): 0.55 nM | IC50 [2]: 46 ± 17 nM
